The experiment has as its target T1, mineralocorticoid receptor (MR) (Homo sapiens, UniProt P08235).
T1 construct: expressed in transfected cells; host or cells: Huh7 (human liver cells)
T1 sequence (P08235 726-964 limits assumed): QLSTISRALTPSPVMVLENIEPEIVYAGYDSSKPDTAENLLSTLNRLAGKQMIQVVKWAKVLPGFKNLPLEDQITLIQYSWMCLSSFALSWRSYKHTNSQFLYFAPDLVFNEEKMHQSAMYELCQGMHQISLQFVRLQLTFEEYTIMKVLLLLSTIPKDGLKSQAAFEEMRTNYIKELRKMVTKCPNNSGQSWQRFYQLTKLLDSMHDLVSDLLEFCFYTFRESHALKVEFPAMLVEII
Put plainly: Cell-based Gal4 response element-controlled luciferase reporter assay (MR antagonism). The conditions noted are these: Huh7 human liver cells transfected with Gal4 DBD-MR LBD fusion and luciferase reporter; block of agonist-induced activation; overnight incubation. An excerpt: Method 1: Cell-based Gal4 Response Element-controlled Luciferase Reporter Assay
An in vitro assay can be used to evaluate mineralocorticoid receptor (MR) antagonism by a test compound. […] An agonist of the receptor can bind to and activate the receptor LBD, which activate the expression of the Gal4 response element containing luciferase reporter gene. Antagonists can compete for binding to the receptor LBDs and decrease the transcription activity of the reporter gene. Measurement of luciferase activity allows quantitative determinations of the reporter transcription in the presence of either agonists or agonists and antagonists in combination. β-galactosidase activity, which is unaffected by ligand, is used to normalize the transfection efficiency in the cell population.
Huh7 cells were plated in RPMI1640+10% fetal bovine serum (Invitrogen Corporation, San Diego, Calif.), at 10,000 cells per well in 96-well tissue culture dishes for approximately 24 hours. Cells were then transfected using FuGENE™ 6 Transfection Reagent according to manufacturers' instructions (Roche Molecular Biochemicals, Indianapolis, Ind.). Approximately 20 hours after transfection, media were removed. Cells were washed once with PBS and treated (n=6/group) with agonist for each receptor (all chemicals from Sigma, St. Louis, Mo.), and with compounds. Agonist concentrations represent 70-80% of full activation of each receptor.
Compounds were dissolved in DMSO at 10 mM and diluted to final concentrations in phenol red-free media that contained 10% charcoal- and dextran-stripped serum (Life Technologies, Gathersburg, Md.). Following overnight incubation (18-20 hours) with compounds, the medium was removed and replaced with 100 μL per well of PBS and 100 μL of Steady-Glo™ lysis buffer with luciferase substrate (Promega Corporation, Madison, Wis.). After a 30-minute incubation to completely lyse the cells, 100 μL of the lysate was transferred to a black, Dynatech Microfluor assay plates (Dynex Corporation, Chantilly, Va.) to measure luciferase activity. The plate was sealed with TopSeal self-adhesive film, dark-adapted for 5 minutes, then counted in a TopCount Plate Reader (Packard Instrument Company, Meriden, Conn.) in single photon counting mode. The remaining lysate was used for determination of β-galactosidase activity. In a clear 96-well assay plate, 100 μL of cell lysate was added to 100 μL β-galactosidase assay buffer per well. The assay buffer consisted of 60 mM Na2HPO4, 40 mM NaH2PO4, 10 mM KCl, 1 mM MgSO4, 50 mM β-mercaptoethanol, and 2.5 mg/mL ONPG, the latter two reagents were added just prior to assay (all chemicals from Sigma). The reaction was allowed to proceed until a distinct yellow color developed. Reactions were stopped by the addition of 100 μL per well 1 M Na2CO3 and plates were read at 420 nm in Victor-2 (Perkin Elmer Life Sciences, Boston, Mass.). Values (relative luciferase activity) for each sample were expressed as a ratio of luciferase activity to OD420β-galactosidase activity measured in arbitrary units for each well. […] “b” is the slope, “c” is the IC50 or EC50. “x” is the concentration of the compound and “y” the activity at that concentration.
On the technique in general: In a reporter assay the amount or activity of a reporter protein is the signal.

Where a name gives a salt, the structure may show the parent alone.

The IC50 is the concentration that inhibits the measured activity by half.

`N#Cc1ccc(N2N=C3c4ccc(C(=O)O)cc4CCC3C2c2ccc(F)cc2)cn1` (racemic) [Example 14, 2-(6-cyanopyridin-3-yl)-3-(4-fluorophenyl)-3,3a,4,5-tetrahydro-2H-benzo[g]indazole-7-carboxylic acid trifluoroacetate]: the IC50 turned out to be 929 nM.

Turning to `N#Cc1ccc(N2N=C3c4ccc(C(=O)O)cc4CCC3C2c2ccno2)cc1` (racemic) [Example 52, 2-(4-cyanophenyl)-3-isoxazol-5-yl-3,3a,4,5-tetrahydro-2H-benzo[g]indazole-7-carboxylic acid], the IC50 was determined as 4980 nM.

Take `N#Cc1ccc(N2N=C3c4ccc(C(=O)O)cc4CCC3C2c2ccoc2)cc1Cl` (racemic) [Example 46, 2-(3-chloro-4-cyanophenyl)-3-(3-furyl)-3,3a,4,5-tetrahydro-2H-benzo[g]indazole-7-carboxylic acid]: the IC50 came out at 69 nM.

Consider `Cc1ncc(C2C3CCc4cc(C(=O)NCCS(C)(=O)=O)ccc4C3=NN2c2ccc(C#N)c(Cl)c2)s1` (centres unmarked) [Example 118, 2-(3-chloro-4-cyanophenyl)-N-[2-(methylsulfonyl)ethyl]-3-(2-methyl-1,3-thiazol-5-yl)-3,3a,4,5-tetrahydro-2H-benzo[g]indazole-7-carboxamide], for which the IC50 worked out at 19 nM.

Regarding `N#Cc1ccc(N2N=C3c4cc(C(=O)O)ccc4CCC3C2c2ccc(F)cc2)cc1Cl` (racemic) [Example 5, 2-(3-chloro-4-cyanophenyl)-3-(4-fluorophenyl)-3,3a,4,5-tetrahydro-2H-benzo[g]indazole-8-carboxylic acid], the IC50 came to 3700 nM.

As to `N#Cc1ccc(N2N=C3c4ccc(C(=O)O)cc4CCC3C2C2CCOC2)cc1Cl` (racemic) [Example 34, 2-(3-chloro-4-cyanophenyl)-3-((R)-tetrahydrofuran-3-yl)-3,3a,4,5-tetrahydro-2H-benzo[g]indazole-7-carboxylic acid and 2-(3-chloro-4-cyanophenyl)-3-((S)-tetrahydrofuran-3-yl)-3,3a,4,5-tetrahydro-2H-benzo[g]indazole-7-carboxylic acid], the 50% inhibitory concentration (IC50) is 720 nM.

In the case of `C[S+]([O-])CCNC(=O)c1ccc2c(c1)CC[C@H]1C2=NN(c2ccc(C#N)c(Cl)c2)[C@H]1C1CCOCC1` (mixture of isomers) [Example 99], the IC50 worked out at 14 nM.

Turning to `Cc1ccc([C@H]2[C@H]3CCc4cc(C(=O)NCCS(C)(=O)=O)ccc4C3=NN2c2ccc(C#N)c(Cl)c2)o1` [Example 117, (3R,3aR)-2-(3-chloro-4-cyanophenyl)-3-(5-methyl-2-furyl)-N-[2-(methylsulfonyl)ethyl]-3,3a,4,5-tetrahydro-2H-benzo[g]indazole-7-carboxamide], the IC50 turned out to be 3 nM.

Consider `N#Cc1ccc(N2N=C3c4ccc(C(=O)O)cc4CCC3C2C2CCOCC2)cc1Cl` (racemic) [Example 36, 2-(3-chloro-4-cyanophenyl)-3-(tetrahydro-2H-pyran-4-yl)-3,3a,4,5-tetrahydro-2H-benzo[g]indazole-7-carboxylic acid], for which the IC50 is 127 nM.

As to `CS(=O)(=O)NC(=O)c1ccc2c(c1)CC[C@H]1C2=NN(c2ccc(C#N)c(Cl)c2)[C@H]1c1ccc(F)cc1` (racemic) [Example 113, (±)-(3RS,3aRS)-2-(3-chloro-4-cyanophenyl)-3-(4-fluorophenyl)-N-(methylsulfonyl)-3,3a,4,5-tetrahydro-2H-benzo[g]indazole-7-carboxamide], the concentration for half-maximal inhibition (IC50) came to 995 nM.

Turning to `N#Cc1ccc(N2N=C3c4ccc(C(=O)O)cc4OCC3C2C2=CCCC2)cc1Cl` (racemic) [Example 78, (±)-(3RS,3aRS)-2-(3-chloro-4-cyanophenyl)-3-cyclopentenyl-2,3,3a,4-tetrahydrochromeno[4,3-c]pyrazole-7-carboxylic acid], the concentration for half-maximal inhibition (IC50) is 70 nM.

In the case of `N#Cc1ccc(N2N=C3c4ccc(C(=O)O)cc4OC[C@@H]3[C@@H]2C2CCCC2)cc1` [Example 71, (3S,3aR)-2-(4-cyanophenyl)-3-cyclopentyl-2,3,3a,4-tetrahydrochromeno[4,3-c]pyrazole-7-carboxylic acid], the IC50 worked out at 205 nM.

For the compound `Cc1cc(N2N=C3c4ccc(C(=O)O)cc4OCC3C2C2CCCC2)ccc1C#N` (racemic) [Example 61, 2-(4-cyano-3-methylphenyl)-3-cyclopentyl-2,3,3a,4-tetrahydrochromeno[4,3-c]pyrazole-7-carboxylic acid], the concentration for half-maximal inhibition (IC50) is 39 nM.

As for `N#Cc1ccc(N2N=C3c4ccc(C(=O)O)cc4OCC3C2C2CCCC2)cc1C(F)(F)F` (racemic) [Example 68, (±)-(3RS,3aSR)-2-[4-cyano-3-(trifluoromethyl)phenyl]-3-cyclopentyl-2,3,3a,4-tetrahydrochromeno[4,3-c]pyrazole-7-carboxylic acid], the IC50 came to 52 nM.

In the case of `N#Cc1ccc(N2N=C3c4ccc(C(=O)O)cc4OCC3C2C2CC2)cc1Cl` (racemic) [Example 76, 2-(3-chloro-4-cyanophenyl)-3-cyclopropyl-2,3,3a,4-tetrahydrochromeno[4,3-c]pyrazole-7-carboxylic acid], the half-maximal inhibitory concentration (IC50) is more than 1000 nM.

Regarding `CC(C)C1C2COc3cc(C(=O)O)ccc3C2=NN1c1ccc(C#N)c(Cl)c1` (racemic) [Example 74, 2-(3-chloro-4-cyanophenyl)-3-isopropyl-2,3,3a,4-tetrahydrochromeno[4,3-c]pyrazole-7-carboxylic acid], the IC50 amounted to 588 nM.

Consider `Cc1cc(N2N=C3c4ccc(C(=O)O)cc4CC[C@@H]3[C@@H]2c2ccc(F)cc2)ccc1C#N` [Example 7, (3R,3aR)-2-(4-cyano-3-methylphenyl)-3-(4-fluorophenyl)-3,3a,4,5-tetrahydro-2H-benzo[g]indazole-7-carboxylic acid], for which the IC50 turned out to be 17.2 nM.

With `CCOC(=O)c1ccc2c(c1)CCC1C2=NN(c2ccc(C#N)c(Cl)c2)C1c1ccc(F)cc1` (centres unmarked) [Example 1, ethyl 2-(3-chloro-4-cyanophenyl)-3-(4-fluorophenyl)-3,3a,4,5-tetrahydro-2H-benzo[g]indazole-7-carboxylate], the concentration for half-maximal inhibition (IC50) amounted to 1070 nM.

In the case of `N#Cc1ccc(N2N=C3c4ccc(C(=O)O)cc4CCC3C2C2CCC2)cc1Cl` (racemic) [Example 35, 2-(3-chloro-4-cyanophenyl)-3-cyclobutyl-3,3a,4,5-tetrahydro-2H-benzo[g] indazole-7-carboxylic acid], the IC50 stood at 21 nM.

As to `Cc1cc(N2N=C3c4ccc(C(=O)O)cc4CCC3C2c2ccc(F)cc2)ccc1C#N` (racemic) [Example 6, 2-(4-cyano-3-methylphenyl)-3-(4-fluorophenyl)-3,3a,4,5-tetrahydro-2H-benzo[g]indazole-7-carboxylic acid], the IC50 was 81 nM.

For `Cc1ncc(C2C3CCc4cc(C(=O)O)ccc4C3=NN2c2ccc(C#N)c(Cl)c2)s1` (racemic) [Example 49, 2-(3-chloro-4-cyanophenyl)-3-(2-methyl-1,3-thiazol-5-yl)-3,3a,4,5-tetrahydro-2H-benzo[g]indazole-7-carboxylic acid], the IC50 turned out to be 103 nM.

Consider `CS(=O)(=O)CCNC(=O)c1ccc2c(c1)CC[C@H]1C2=NN(c2ccc(C#N)c(Cl)c2)[C@H]1C1CCCC1` [Example 114, (3S,3aR)-2-(3-chloro-4-cyanophenyl)-3-cyclopentyl-N-(2-(methylsulfonyl)ethyl)-3,3a,4,5-tetrahydro-2H-benzo[g]indazole-7-carboxamide], for which the IC50 was determined as 1 nM.

In the case of `CCN(CC)CCN(CCN(CC)CC)C(=O)c1ccc2c(c1)CC[C@H]1C2=NN(c2ccc(C#N)c(Cl)c2)[C@H]1c1ccc(F)cc1` (racemic) [Example 107, (±)-(3RS,3aRS)-2-(3-chloro-4-cyanophenyl)-N,N-bis(2-(diethylamino)ethyl)-3-(4-fluorophenyl)-3,3a,4,5-tetrahydro-2H-benzo[g]indazole-7-carboxamide bistrifluoroacetate], the half-maximal inhibitory concentration (IC50) came out at 523 nM.

Source of the values: patent US7781428B2 (Pfizer Inc., priority 2006, dated 2010).
